Data published in ChEMBL document CHEMBL3886359, “Treatment of respiratory disorders using TRPA1 antagonists” (2015).
pIC50: −log10 of the molar value.

Experiments:
Format in all cases: cell-based
[1] = target: T1, Transient receptor potential cation channel subfamily V member 3 (Homo sapiens, UniProt Q8NET8); test: (§1) Radiometric Calcium Assay: The inhibition of TRPA1 receptor activation was measured as inhibition of allylisothiocyanate (AITC) induced cellular uptake of radioactive calcium. Test compounds were dissolved in DMSO to prepare 10 mM stock solution and then diluted using plain medium with 0.1% BSA and 1.8 mM CaCl2 to get desired concentration. Final concentration of DMSO in the reaction was 0.5% (v/v). Human TRPA1 expressing CHO cells were grown in F-12 DMEM medium with 10% FBS, 1% penicillin-streptomycin solution, and 400 ug/ml of G-418. Cells were seeded 24 h prior to the assay in 96 well plates so as to get 50,000 cells per well on the day of experiment. Cells were treated with test compounds for 10 min followed by addition of AITC at a final concentration of 30 micromolar and 5 uCi/ml 45Ca+2 for 3 min at 25° C. Cells were washed and lysed using buffer containing 1% Triton X-100, 0.1% deoxycholate and 0.1% SDS. Radioactivity in the lysate was measured in Packard Top count.
T1 sequence (Q8NET8 whole entry): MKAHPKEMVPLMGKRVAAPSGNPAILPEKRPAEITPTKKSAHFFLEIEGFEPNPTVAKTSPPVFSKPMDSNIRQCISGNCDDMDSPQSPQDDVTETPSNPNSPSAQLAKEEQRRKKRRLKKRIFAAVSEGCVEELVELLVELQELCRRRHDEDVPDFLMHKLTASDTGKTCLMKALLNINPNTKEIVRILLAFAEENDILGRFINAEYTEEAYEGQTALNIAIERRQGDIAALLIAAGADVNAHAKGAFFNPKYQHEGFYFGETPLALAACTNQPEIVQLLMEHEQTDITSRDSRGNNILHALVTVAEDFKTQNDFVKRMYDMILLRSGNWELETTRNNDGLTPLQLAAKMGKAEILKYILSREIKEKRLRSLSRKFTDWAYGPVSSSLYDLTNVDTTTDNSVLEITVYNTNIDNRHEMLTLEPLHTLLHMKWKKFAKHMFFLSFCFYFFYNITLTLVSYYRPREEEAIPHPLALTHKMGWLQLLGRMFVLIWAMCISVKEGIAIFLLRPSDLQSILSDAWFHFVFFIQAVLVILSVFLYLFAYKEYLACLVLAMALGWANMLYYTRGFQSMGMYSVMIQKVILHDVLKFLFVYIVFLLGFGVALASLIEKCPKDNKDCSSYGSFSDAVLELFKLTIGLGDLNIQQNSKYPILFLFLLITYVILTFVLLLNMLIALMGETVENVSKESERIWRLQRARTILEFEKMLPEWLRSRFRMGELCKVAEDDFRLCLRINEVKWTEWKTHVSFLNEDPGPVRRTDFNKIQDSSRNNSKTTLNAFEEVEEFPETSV

[2] = target: Transient receptor potential cation channel subfamily V member 4 (Homo sapiens, UniProt Q9HBA0); test: as §1
Sequence of Transient receptor potential cation channel subfamily V member 4 (Q9HBA0 whole entry): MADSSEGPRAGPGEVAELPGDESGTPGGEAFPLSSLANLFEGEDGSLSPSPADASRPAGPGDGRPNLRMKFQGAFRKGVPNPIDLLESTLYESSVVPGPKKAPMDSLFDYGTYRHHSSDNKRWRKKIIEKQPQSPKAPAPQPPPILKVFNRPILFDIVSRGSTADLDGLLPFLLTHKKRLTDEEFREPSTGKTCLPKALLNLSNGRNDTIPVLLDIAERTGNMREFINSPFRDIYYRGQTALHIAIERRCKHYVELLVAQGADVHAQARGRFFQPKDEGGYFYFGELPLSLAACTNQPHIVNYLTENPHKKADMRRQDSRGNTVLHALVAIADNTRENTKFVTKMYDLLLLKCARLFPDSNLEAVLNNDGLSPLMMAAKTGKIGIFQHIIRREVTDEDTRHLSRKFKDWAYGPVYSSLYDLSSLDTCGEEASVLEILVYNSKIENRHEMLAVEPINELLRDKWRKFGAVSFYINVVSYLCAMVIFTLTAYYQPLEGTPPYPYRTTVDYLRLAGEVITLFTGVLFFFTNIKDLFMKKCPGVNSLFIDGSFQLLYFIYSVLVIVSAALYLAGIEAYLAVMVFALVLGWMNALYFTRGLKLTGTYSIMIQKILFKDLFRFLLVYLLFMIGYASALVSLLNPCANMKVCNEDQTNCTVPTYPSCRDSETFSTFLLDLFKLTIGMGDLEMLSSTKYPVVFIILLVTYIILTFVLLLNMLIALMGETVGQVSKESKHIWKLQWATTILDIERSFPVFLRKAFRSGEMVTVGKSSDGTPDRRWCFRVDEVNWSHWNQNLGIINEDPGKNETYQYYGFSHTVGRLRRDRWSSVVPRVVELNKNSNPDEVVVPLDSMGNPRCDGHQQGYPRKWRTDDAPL

[3] = target: Transient receptor potential cation channel subfamily M member 8 (Homo sapiens, UniProt Q7Z2W7); test: as §1
Sequence of Transient receptor potential cation channel subfamily M member 8 (Q7Z2W7 whole entry): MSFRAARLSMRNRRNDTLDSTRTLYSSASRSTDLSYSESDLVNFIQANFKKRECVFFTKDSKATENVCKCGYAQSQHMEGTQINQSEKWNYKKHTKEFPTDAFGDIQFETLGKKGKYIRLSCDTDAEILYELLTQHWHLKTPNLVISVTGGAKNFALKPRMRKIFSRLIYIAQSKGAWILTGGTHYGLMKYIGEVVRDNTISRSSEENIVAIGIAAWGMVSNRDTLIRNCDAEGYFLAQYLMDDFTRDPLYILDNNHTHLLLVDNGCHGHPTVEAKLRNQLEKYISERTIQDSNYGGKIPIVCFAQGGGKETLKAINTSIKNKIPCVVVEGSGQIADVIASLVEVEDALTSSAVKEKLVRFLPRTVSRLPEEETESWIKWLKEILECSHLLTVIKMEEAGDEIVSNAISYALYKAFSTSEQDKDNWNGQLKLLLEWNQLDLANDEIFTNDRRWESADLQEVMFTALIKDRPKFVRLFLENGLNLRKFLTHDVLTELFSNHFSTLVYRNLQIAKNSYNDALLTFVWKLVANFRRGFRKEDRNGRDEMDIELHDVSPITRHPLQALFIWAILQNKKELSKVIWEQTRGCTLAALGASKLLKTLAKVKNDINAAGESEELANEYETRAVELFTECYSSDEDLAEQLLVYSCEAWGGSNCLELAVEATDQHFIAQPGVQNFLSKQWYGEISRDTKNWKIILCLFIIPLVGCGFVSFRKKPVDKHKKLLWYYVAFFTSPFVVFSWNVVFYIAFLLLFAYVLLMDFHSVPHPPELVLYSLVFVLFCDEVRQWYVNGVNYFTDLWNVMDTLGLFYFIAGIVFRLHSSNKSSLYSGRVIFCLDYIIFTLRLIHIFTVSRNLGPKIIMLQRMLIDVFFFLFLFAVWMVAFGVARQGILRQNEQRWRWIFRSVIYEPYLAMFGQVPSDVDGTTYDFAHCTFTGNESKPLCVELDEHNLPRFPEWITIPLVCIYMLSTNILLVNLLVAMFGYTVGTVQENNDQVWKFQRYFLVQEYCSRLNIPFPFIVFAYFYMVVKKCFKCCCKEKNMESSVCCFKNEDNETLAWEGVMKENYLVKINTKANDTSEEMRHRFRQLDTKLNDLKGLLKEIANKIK

[4] = target: Transient receptor potential cation channel subfamily V member 1 (Homo sapiens, UniProt Q8NER1); test: as §1
Sequence of Transient receptor potential cation channel subfamily V member 1 (Q8NER1 whole entry): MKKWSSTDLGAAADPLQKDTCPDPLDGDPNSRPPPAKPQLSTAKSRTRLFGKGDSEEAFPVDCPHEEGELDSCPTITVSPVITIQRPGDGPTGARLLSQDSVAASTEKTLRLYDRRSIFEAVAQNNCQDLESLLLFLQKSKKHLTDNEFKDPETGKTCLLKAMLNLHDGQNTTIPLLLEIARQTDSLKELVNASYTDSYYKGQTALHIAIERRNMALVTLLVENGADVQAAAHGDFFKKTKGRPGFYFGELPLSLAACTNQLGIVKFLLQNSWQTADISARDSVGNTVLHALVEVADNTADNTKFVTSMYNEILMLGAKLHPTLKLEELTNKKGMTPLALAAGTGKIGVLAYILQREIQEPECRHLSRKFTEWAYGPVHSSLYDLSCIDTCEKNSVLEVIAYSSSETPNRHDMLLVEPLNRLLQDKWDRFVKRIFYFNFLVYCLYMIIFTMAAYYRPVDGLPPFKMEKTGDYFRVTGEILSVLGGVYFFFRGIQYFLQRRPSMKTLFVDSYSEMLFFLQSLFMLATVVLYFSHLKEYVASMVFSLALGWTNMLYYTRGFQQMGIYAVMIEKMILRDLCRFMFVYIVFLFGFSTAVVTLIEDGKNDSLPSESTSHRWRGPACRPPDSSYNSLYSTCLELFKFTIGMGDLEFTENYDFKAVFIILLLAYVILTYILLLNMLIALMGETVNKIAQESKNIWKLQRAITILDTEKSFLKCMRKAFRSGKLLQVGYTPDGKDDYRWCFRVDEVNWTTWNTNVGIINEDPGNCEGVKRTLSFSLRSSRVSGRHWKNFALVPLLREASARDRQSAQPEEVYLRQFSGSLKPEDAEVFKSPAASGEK

[5] = target: Transient receptor potential cation channel subfamily A member 1 (Homo sapiens, UniProt O75762); test: as §1
Sequence of Transient receptor potential cation channel subfamily A member 1 (O75762 whole entry): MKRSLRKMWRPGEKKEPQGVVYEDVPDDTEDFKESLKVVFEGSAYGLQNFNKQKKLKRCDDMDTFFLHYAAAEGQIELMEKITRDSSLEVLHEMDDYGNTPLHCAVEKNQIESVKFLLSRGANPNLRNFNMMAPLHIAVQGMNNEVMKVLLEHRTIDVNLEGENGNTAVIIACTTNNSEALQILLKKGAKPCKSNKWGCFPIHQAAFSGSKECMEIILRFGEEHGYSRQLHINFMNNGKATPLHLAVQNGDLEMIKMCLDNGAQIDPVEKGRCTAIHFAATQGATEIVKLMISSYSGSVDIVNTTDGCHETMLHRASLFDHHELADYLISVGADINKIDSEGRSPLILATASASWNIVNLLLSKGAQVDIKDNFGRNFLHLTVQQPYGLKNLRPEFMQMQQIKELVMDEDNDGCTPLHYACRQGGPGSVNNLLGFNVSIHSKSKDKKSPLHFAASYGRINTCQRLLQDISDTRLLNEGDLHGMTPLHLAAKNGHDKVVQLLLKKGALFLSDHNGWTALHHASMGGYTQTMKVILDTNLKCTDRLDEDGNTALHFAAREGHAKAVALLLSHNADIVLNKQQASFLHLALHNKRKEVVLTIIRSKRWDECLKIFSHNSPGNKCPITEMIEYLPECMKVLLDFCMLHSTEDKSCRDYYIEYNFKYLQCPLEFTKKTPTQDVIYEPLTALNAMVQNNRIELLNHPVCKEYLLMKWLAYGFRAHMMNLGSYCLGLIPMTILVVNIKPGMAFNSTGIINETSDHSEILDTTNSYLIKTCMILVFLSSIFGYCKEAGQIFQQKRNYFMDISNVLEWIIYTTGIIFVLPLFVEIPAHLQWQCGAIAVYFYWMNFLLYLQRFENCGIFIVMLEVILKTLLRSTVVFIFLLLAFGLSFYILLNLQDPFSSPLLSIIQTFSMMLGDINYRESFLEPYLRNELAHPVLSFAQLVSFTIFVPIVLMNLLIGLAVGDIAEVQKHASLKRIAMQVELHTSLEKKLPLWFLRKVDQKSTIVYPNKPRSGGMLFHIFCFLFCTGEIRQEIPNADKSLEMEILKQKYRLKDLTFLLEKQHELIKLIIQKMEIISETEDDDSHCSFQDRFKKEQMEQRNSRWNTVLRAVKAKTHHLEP

Row | Structure (SMILES) | pIC50 [1] | pIC50 [2] | pIC50 [3] | pIC50 [4] | pIC50 [5]
1 | Cn1c(=O)c2c(CC(=O)Nc3nc(-c4ccc(F)c(C(F)(F)F)c4F)cs3)csc2n(C)c1=O | 5.60 | 5.52 |  |  | 
2 | Cc1oc2c(c1CC(=O)Nc1nc(-c3ccc(OC(F)(F)F)c(Cl)c3)cs1)c(=O)n(C)c(=O)n2C | 5.35 | 5.24 | < 5.00 | < 5.00 | 
3 | Cn1c(=O)c2c(CC(=O)Nc3nc(-c4ccc(C(F)(F)F)c(F)c4F)cs3)nsc2n(C)c1=O | 5.55 | 6.88 | < 5.00 | 4.75 | 
4 | Cn1nc2c(c1CC(=O)/N=c1\scc(-c3ccc(F)c(C(F)(F)F)c3F)n1COP(=O)(O)O)c(=O)n(C)c(=O)n2C | < 5.00 | < 5.00 | < 5.00 | < 5.00 | 5.80
5 | Cc1oc2c(c1CC(=O)/N=c1\scc(-c3ccc(OC(F)(F)F)c(Cl)c3)n1COP(=O)(O)O)c(=O)n(C)c(=O)n2C | < 5.00 | < 5.00 | < 5.00 | < 5.00 | 5.93
6 | Cc1oc2c(c1CC(=O)/N=c1\scc(-c3ccc(OC(F)(F)F)c(Cl)c3)n1COC(=O)[C@@H](N)C(C)C)c(=O)n(C)c(=O)n2C | 5.55 | 5.63 | < 5.00 | < 5.00 | 
